One series deals with T1, hTLR8 (Homo sapiens, UniProt Q9NR97).
T1 construct: expressed in transfected cells; host or cells: HEK-Blue hTLR8 cells
T1 sequence (Q9NR97 27-1041): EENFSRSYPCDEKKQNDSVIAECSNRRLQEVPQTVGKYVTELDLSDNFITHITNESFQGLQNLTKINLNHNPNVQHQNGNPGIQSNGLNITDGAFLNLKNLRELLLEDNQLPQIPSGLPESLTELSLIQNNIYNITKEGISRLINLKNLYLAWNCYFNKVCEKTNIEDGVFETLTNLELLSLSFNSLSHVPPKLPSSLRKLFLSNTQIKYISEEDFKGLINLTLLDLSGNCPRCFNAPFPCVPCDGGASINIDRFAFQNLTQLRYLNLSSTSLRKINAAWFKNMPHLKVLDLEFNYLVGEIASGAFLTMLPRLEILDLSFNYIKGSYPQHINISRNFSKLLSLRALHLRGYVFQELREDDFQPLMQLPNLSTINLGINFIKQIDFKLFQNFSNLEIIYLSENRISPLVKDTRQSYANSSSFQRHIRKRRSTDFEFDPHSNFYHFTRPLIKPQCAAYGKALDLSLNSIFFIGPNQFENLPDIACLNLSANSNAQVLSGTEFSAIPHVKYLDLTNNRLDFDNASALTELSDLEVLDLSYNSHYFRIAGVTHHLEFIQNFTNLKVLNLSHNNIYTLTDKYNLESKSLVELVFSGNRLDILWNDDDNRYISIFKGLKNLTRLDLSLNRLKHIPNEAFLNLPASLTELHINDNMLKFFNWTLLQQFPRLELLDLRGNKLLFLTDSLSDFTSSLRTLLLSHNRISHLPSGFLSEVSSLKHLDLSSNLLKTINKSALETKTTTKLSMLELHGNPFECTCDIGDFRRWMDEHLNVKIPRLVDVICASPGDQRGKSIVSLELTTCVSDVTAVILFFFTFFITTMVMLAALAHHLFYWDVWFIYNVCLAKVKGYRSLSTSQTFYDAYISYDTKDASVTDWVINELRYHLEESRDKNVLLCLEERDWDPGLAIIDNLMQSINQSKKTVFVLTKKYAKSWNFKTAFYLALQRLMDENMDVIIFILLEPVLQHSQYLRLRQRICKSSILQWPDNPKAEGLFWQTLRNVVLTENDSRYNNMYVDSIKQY
The experiment in a line: Agonistic activity on human TLR8 in HEK-Blue hTLR8 cells (QUANTI-Blue). The series is classed as cell-based. The conditions noted are these: 24 h incubation, OD650, read-out: hTLR 8 EC50.

Another series concerns the target T2, hTLR7 (Homo sapiens, UniProt Q9NYK1).
T2 construct: expressed in transfected cells; host or cells: HEK-Blue hTLR7 cells
T2 sequence (Q9NYK1 27-1049): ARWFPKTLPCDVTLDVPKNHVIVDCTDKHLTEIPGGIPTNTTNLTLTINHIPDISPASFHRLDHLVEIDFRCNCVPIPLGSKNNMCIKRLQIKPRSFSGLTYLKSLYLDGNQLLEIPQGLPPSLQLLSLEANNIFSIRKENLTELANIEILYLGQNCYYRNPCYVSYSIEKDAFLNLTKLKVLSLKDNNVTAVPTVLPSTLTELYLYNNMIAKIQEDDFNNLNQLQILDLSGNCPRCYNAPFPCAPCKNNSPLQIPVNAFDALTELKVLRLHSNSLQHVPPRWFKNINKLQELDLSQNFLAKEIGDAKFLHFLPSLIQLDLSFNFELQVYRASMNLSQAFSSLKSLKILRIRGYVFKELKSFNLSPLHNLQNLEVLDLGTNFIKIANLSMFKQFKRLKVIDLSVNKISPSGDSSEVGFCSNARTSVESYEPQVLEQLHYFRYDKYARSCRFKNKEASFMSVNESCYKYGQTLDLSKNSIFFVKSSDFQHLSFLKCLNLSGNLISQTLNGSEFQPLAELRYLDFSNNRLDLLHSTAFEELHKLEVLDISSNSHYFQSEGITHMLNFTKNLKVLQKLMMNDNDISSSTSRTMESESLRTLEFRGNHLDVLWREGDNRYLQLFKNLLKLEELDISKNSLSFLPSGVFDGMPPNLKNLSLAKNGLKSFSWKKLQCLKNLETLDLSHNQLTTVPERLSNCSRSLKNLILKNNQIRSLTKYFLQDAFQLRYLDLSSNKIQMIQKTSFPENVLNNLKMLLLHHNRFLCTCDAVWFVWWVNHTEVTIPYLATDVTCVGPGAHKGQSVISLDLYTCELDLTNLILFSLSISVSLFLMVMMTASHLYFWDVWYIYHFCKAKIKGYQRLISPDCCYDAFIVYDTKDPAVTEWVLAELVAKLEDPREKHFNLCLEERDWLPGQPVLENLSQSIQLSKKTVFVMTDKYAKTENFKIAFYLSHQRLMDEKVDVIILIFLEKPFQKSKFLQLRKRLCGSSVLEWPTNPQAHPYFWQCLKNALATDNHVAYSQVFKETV
Briefly: Agonistic activity on human TLR7 in HEK-Blue hTLR7 cells (QUANTI-Blue). The series is classed as cell-based. The note with it: 24 h incubation, OD650, read-out: hTLR 7 EC50.

Series [1] can be described thus: Cell toxicity (Celltiter-Glo) in HEK-Blue hTLR8 cells. The note with it: human. For orientation: Cellular ATP, detected with luciferase, serves as a proxy for viable cell number.

Consider 24 compounds from patent US20250163051A1, “PYRIMIDO AROMATIC RING COMPOUND AND USE THEREOF IN DRUG” (SUNSHINE LAKE PHARMA CO., LTD., priority 2022, published 2025).

Each structure is given as a SMILES string. pEC50: −log10 of the molar value.

As to `C=CCCN(CCC=C)Cc1c[nH]c(=O)cc1-c1cnc2c(N[C@@](C)(CO)CCCC)nc(N)nc2c1` [Example 13], the pEC50 (usually the negative decadic logarithm of the EC50, by convention in mol/L) at hTLR8 was 5.76; at hTLR7 it was 4.09. Also, the CC50 – broadly, the concentration giving 50% cytotoxicity – at 24 h in series [1] came to 97.3 µM.
Turning to `CCCC[C@](C)(CO)Nc1nc(N)nc2cc(-c3cc(=O)[nH]cc3CN3CCNCC3)cnc12` [Example 15], in series [1], the CC50 at 24 h is > 100 µM.
In the case of `CCCC[C@](C)(CO)Nc1nc(N)nc2cc(-c3cc(=O)n(C)cc3CNCCOC)ccc12` [Example 61, (R)-4-(2-Amino-4-((1-hydroxy-2-methylhexan-2-yl)amino)quinazolin-7-yl)-5-(((2-methoxyethyl)amino)methyl)-1-methylpyridin-2(1H)-one], the pEC50 at hTLR8 was 6.38; at hTLR7, < 4.00. Further, in series [1], the cytotoxic concentration (CC50) at 24 h was > 100 µM.
Taken in the same sequence, the figures for `CCCC[C@](C)(CO)Nc1nc(N)nc2cc(-c3cc(=S)[nH]cc3CN(C)CCOC)cnc12` [Example 66, (R)-4-(2-Amino-4-((1-hydroxy-2-methylhexan-2-yl)amino)pyrido[3,2-d]pyrimidin-7-yl)-5-(((2-methoxyethyl)(methyl)amino)methyl)pyridine-2(1H)-thione] were 6.74, < 4.00 and > 100 µM.
In the case of `C=CCCN(C)Cc1cn(C)c(=O)cc1-c1cnc2c(N[C@@](C)(CO)CCCC)nc(N)nc2c1` [Example 7], the pEC50 at hTLR8 is 6.50; on hTLR7, < 4.00. The 50% cytotoxic concentration (CC50) at 24 h in series [1] was > 100 µM.
For the compound `C=CCCN(C)Cc1cn(C2CCN(C)CC2)c(=O)cc1-c1cnc2c(N[C@@](C)(CO)CCCC)nc(N)nc2c1` [Example 37, (R)-4-(2-Amino-4-((1-hydroxy-2-methylhexan-2-yl)amino)pyrido[3,2-d]pyrimidin-7-yl)-5-((but-3-en-1-yl(methyl)amino)methyl)-1-(1-methylpiperidin-4-yl)pyridin-2(1H)-one], the pEC50 on hTLR8 was 6.40; at hTLR7, < 4.00.
Take `CCCC[C@](C)(CO)Nc1nc(N)nc2cc(-c3cc(=O)[nH]cc3CN3CCN(C)CC3)cnc12` [Example 22]: the pEC50 at hTLR8 is 6.01; on hTLR7 it was < 4.00. The CC50 at 24 h in series [1] was > 100 µM.
Take `CCCC[C@](C)(CO)Nc1nc(N)nc2cc(-c3cc(=O)[nH]cc3CN3CCOCC3)cnc12` [Example 24]: the pEC50 was 6.62 at hTLR8 and < 4.00 at hTLR7. In addition, the CC50 at 24 h in series [1] was > 100 µM.
For `CCCCN(C)Cc1c[nH]c(=O)cc1-c1cnc2c(N[C@](C)(CCCC)COC)nc(N)nc2c1` [Example 53, (R)-4-(2-Amino-4-((1-methoxy-2-methylhexan-2-yl)amino)pyrido[3,2-d]pyrimidin-7-yl)-5-((butyl(methyl)amino)methyl)pyridin-2(1H)-one], at hTLR8, the pEC50 was 6.17.
As for `CCCC[C@](C)(CO)Nc1nc(N)nc2cc(-c3cc(=O)[nH]cc3CN(C)CCc3ccccc3)cnc12` [Example 11], at hTLR8, the pEC50 was 5.78.
As to `CCCCN(CCCC)Cc1cn(C)c(=O)cc1-c1cnc2c(N[C@@](C)(CO)CCCC)nc(N)nc2c1` [Example 4], the pEC50 is 5.97 at hTLR8 and < 4.00 at hTLR7.
`CCCCNCc1cn(C)c(=O)cc1-c1ccc2c(N[C@@](C)(CO)CCCC)nc(N)nc2c1` [Example 62, (R)-4-(2-Amino-4-((1-hydroxy-2-methylhexan-2-yl)amino)quinazolin-7-yl)-5-((butylamino)methyl)-1-methylpyridin-2(1H)-one]: the pEC50 was 6.70 on hTLR8 and < 4.00 on hTLR7. Further, the CC50 at 24 h in series [1] is > 100 µM.
On to `CCCC[C@](C)(CO)Nc1nc(N)nc2cc(-c3cc(=O)[nH]cc3CN3CCCCC3)cnc12` [Example 16], for which the pEC50 is 6.98 at hTLR8 and 4.18 on hTLR7.
With `C=CCCN(CCC=C)Cc1c[nH]c(=O)cc1-c1ccc2c(N[C@@](C)(CO)CCCC)nc(N)nc2c1` [Example 31], the pEC50 was 6.68 at hTLR8 and 4.25 on hTLR7.
On to `CCCC[C@](C)(CO)Nc1nc(N)nc2cc(-c3cc(=O)n(C)cc3CN(C)CCC3CC3)cnc12` [Example 2], for which the pEC50 at hTLR8 was 7.00; at hTLR7, < 4.00.
As to `C=CCCN(CCC=C)Cc1cn(C)c(=O)cc1-c1cnc2c(N[C@@](C)(CO)CCCC)nc(N)nc2c1` [Example 3], the pEC50 is 5.84 at hTLR8 and < 4.00 at hTLR7.
`CCCC[C@](C)(CO)Nc1nc(N)nc2cc(-c3cc(=O)[nH]cc3CN3CCC(F)(F)CC3)cnc12` [Example 26]: the results for the pEC50 at hTLR8 and at hTLR7 were 6.07 and 4.26, respectively.
Turning to `CCCCN(CCCC)Cc1c[nH]c(=O)cc1-c1ccc2c(N[C@@](C)(CO)CCCC)nc(N)nc2c1` [Example 32], the results for the pEC50 on hTLR8 and at hTLR7 were 6.40 and 4.33, respectively.
Take `CCCCN(C)Cc1c[nH]c(=O)cc1-c1cnc2c(N[C@@](C)(CO)CCCC)nc(N)nc2c1` [Example 69, 4-(2-Amino-4-((1-hydroxy-2-methylhexan-2-yl)amino)pyrido[3,2-d]pyrimidin-7-yl)-5-((butyl(methyl)amino)methyl)pyridin-2(1H)-one]: the pEC50 on hTLR8 is 7.64; on hTLR7, 4.92.
On to `CCCC[C@](C)(CO)Nc1nc(N)nc2cc(-c3cc(=O)[nH]cc3CN(C)CCC3CC3)cnc12` [Example 12], for which the pEC50 is 7.72 at hTLR8 and 4.29 on hTLR7.
With `CCCC[C@H](CO)Nc1nc(N)nc2cc(-c3cc(=O)[nH]cc3CN(C)CCCC)cnc12` [Example 43, (R)-4-(2-Amino-4-((1-hydroxyhexan-2-yl)amino)pyrido[3,2-d]pyrimidin-7-yl)-5-((butyl(methyl)amino)methyl)pyridin-2(1H)-one], the CC50 at 24 h in series [1] was > 100 µM.
As for `CCCC[C@](C)(CO)Nc1nc(N)nc2cc(-c3cc(=O)n(C)cc3CN(C)CCc3ccccc3)cnc12` [Example 1, (R)-4-(2-Amino-4-((1-hydroxy-2-methylhexan-2-yl)amino)pyrido[3,2-d]pyrimidin-7-yl)-1-methyl-5-((methyl(phenethyl)amino)methyl)pyridin-2(1H)-one], the pEC50 on hTLR8 was 5.74; on hTLR7, 4.14.
Taken in the same sequence, the figures for `C#CCCN(C)Cc1cn(C)c(=O)cc1-c1cnc2c(N[C@@](C)(CO)CCCC)nc(N)nc2c1` [Example 6] were 5.41 and < 4.00.
For `CCCC[C@](C)(CO)Nc1nc(N)nc2cc(-c3cc(=O)[nH]cc3CN(C)CCc3ccccc3)ccc12` [Example 29, (R)-4-(2-Amino-4-((1-hydroxy-2-methylhexan-2-yl)amino)quinazolin-7-yl)-5-((methyl(phenethyl)amino)methyl)pyridin-2(1H)-one], in that order: 6.57 and 4.63.
